Source: patent US20130023485A1, “PARENTERAL FORMULATIONS OF PEPTIDES FOR THE TREATMENT OF SYSTEMATIC LUPUS ERYTHEMATOSUS” (Teva Pharmaceutical Industries, Ltd., priority 2003, published 2013)
Where two headings read alike, the source gives them in different places.

Key:
PBL from SLE patients = assay: Proliferation of PBL in presence of mAb or peptides (3H-thymidine); assay type: cell-based, human
Description: (§1) Peripheral blood lymphocytes (PBL) were isolated from the blood of SLE patients or healthy controls using ficol gradient. Thereafter, the PBL were incubated in the presence of different concentrations of the peptides Ia, IIa or IIIa, or the human 16/6 Id mAb for 24 hr, when a sample was taken for IL-2 measurement. The assay was continued for a total of 7 days, and ^3H-thymidine was added for the last 16 hr. Proliferation was detected by reading the amount of radioactivity incorporated into the DNA of the cells.
(§2) As is seen in Table 14, a lower proportion of the PBL taken from SLE patients reacted to the peptides or to the 16/6 Id mAb, when compared to the healthy controls. The results are expressed in percentage of responder (34% in the first line) and the actual number of patients (11 out of 32: 11/32).

[1] = system: PBL from healthy controls; assay: as above; assay type: cell-based, human
Description: as §1, §2

[2] = system: antibodies in sera of SLE patients and healthy controls; assay: ELISA of sera for antibodies binding plate-coated peptides or mAb; design: species or system human; conditions: plates coated with 10 μg/ml; FIG. 7
Description: Human SLE patients (32 patients) were bled and their sera were tested by ELISA for their ability to bind the peptides Ia, IIa and 111a, a control peptide p195-212 (a myasthogenic peptide described in PCT publication No. WO 94/00148) or mAb 5G12.
Detection of the antibodies was conducted on plates that were coated with 10 μg/ml of peptides Ia, IIa, IIIa, p195-212 or mAb 5G12, in PBS for 2 hr, washed and blocked with 1% ovalbumin in PBS for an additional 2 hr. ELISA was continued as described after blockage in Example 2 of PCT International Publication No. 96/30057, using goat anti-human IgG polyclonal antibody conjugated to peroxidase.

PBL of SLE patients = assay: Production of IL-2 by PBL in presence of mAb or peptides (CTLD cells); assay type: cell-based, human
Description: (§3) PBL were isolated from blood of SLE patients or healthy controls using ficol gradient, and were incubated as in Example 11. A sample of 50 μl was removed 24 hr after the assay was started, and incubated in the presence of IL-2 sensitive cells (CTLD) for 24 hr, after which ^3H-thymidine was added for 16 hr, and the plates were harvested and counted on a beta counter.

PBL of healthy controls = assay: as above; assay type: cell-based, human
Description: as §3

[3] = system: PBL of SLE patients stimulated with human 16/6Id mAb; assay type: cell-based; conditions: for inhibition of proliferative responses to human 16/6Id mAb: PBL of one SLE patient; for Percent Inhibition of proliferation: highest positive inhibition, peptide 50 or 100 μg/well
Description: Cells were then harvested and radioactivity was counted using a β-counter. Results were expressed as mean counts per minute (cpm) of triplicate cultures. Stimulation indices (the ratio of mean cpm at the optimal concentration of 16/6Id to mean cpm without 16/6Id) were then calculated. A stimulation index (SI)≧2 was considered positive. […] Inhibition of above 50% of the proliferative capacity was considered positive. The Table represents the highest positive inhibition capacity for each peptide. […] Both peptides inhibited the proliferation of PBL of 18/19(95%) of responders tested. It can also be seen in the Table that the magnitudes of inhibitions were similar for both peptides. Thus, it can be concluded that peptides based on CDR1 and CDR3 of the human 16/6Id mAb are efficient inhibitors of the proliferation of PBL of SLE patients to the human 16/6Id mAb.

[4] = system: PBL of SLE patients stimulated with phytohemagglutinin (PHA); assay: Proliferation of PBL stimulated with mitogen PHA; assay type: cell-based, human; conditions: PHA 2 μg/ml; PBL of one SLE patient, FIG. 9
Description: To this end the peptides hCDR1 or hCDR3 were added to cultures of PBL of SLE patients that were stimulated with the mitogen phytohemagglutinin (PHA, 2 μg/ml).

[5] = system: IL-2 secretion by PBL of SLE patients; assay: Inhibition of IL-2 secretion by PBL stimulated with human 16/6Id mAb (CTLL line); assay type: cell-based
Description: It was of interest to find out whether the hCDR peptides are capable of inhibiting IL-2 secretion by PBL of SLE patients following stimulation with the human 16/6Id mAb. […] To this end, PBL of SLE patients were incubated with the human 16/6Id mAb in the absence or presence of the peptides hCDR1 or hCDR3. Supernatants of the cultures were collected following 48 hours of incubation. Assays to determine levels of IL-2 in the supernatants were performed using the CTLL IL-2 dependent line. Briefly, cells of the CTLL line (2×10^4/well) were incubated in the presence of the different supernatants for 24 hours, followed by the addition of ^3H-thymidine for an additional 18-hour incubation period. Cells were then harvested and radioactivity counted using a β-counter. Results were calculated based on recombinant human IL-2 used as a standard. The ability of the peptides to inhibit the IL-2 secretion of PBL of 23 responders stimulated by the human 16/6 Id was tested. […] Inhibition of proliferative responses of PBL directly correlated with IL-2 inhibition by the CDR-based peptides.

[6] = system: TGF-β secretion by PBL of SLE patients; assay: Up-regulation of TGF-β secretion by PBL stimulated with human 16/6Id mAb (ELISA); assay type: cell-based
Description: For this purpose, supernatants were removed from cultures of PBL of various SLE patients following 48 hours incubation with the human 16/6Id mAb in the absence or presence of the peptides hCDR1 or hCDR3. TGF-β was determined by ELISA according to the manufacturer's instructions. Briefly, Maxisorb plates (Nunc) were coated with recombinant human TGFβsRII/Fc chimera (R & D Systems) diluted in PBS (100 ng/ml). After blocking, cell supernatants were added. After 18 hours incubation the detecting biotinylated anti-human TGF-β antibody (R & D Systems) was added. The substrate solution used was the TMB Colour Reagent (Helix Diagnostics) and enzyme activity was evaluated by the MRX ELISA reader using the 570 nm and 630 nm filters.

EINPSTGGTTYNQKFKAKAT (EINPSTGGTTYNQKFKAKAT) [pep IIa, based on CDR2 of the VH chain of mAb 5G12]
number of responders / tested (proliferation) (PBL from SLE patients): 3/32
percentage of responders (proliferation) (PBL from SLE patients): 9%
number of responders / tested (proliferation) [1]: 7/25
percentage of responders (proliferation) [1]: 28%
levels of serum antibodies binding the coated antigen, SLE patients versus healthy controls [2]: significantly higher levels
number of responders / tested (IL-2 production) (PBL of SLE patients): 3/32
number of responders / tested (IL-2 production) (PBL of healthy controls): 8/25
percentage of responders (IL-2 production) (PBL of healthy controls): 32%

TGYYMQWVKQSPEKSLEWIG [pep Ia]
number of responders / tested (proliferation) (PBL from SLE patients): 7/32
percentage of responders (proliferation) (PBL from SLE patients): 21%
number of responders / tested (proliferation) [1]: 11/25
percentage of responders (proliferation) [1]: 44%
levels of serum antibodies binding the coated antigen, SLE patients versus healthy controls [2]: significantly higher levels
number of responders / tested (IL-2 production) (PBL of SLE patients): 5/32
percentage of responders (IL-2 production) (PBL of SLE patients): 16%
number of responders / tested (IL-2 production) (PBL of healthy controls): 14/25
percentage of responders (IL-2 production) (PBL of healthy controls): 56%

YYCARFLWEPYAMDYWGQGS (YYCARFLWEPYAMDYWGQGS) [pep IIIa, based on CDR3 of the VH chain of mAb 5G12]
number of responders / tested (proliferation) (PBL from SLE patients): 10/32
percentage of responders (proliferation) (PBL from SLE patients): 31%
number of responders / tested (proliferation) [1]: 15/25
percentage of responders (proliferation) [1]: 60%
inhibition of proliferative responses to human 16/6Id mAb ([3]; FIG. 10): did not inhibit
levels of serum antibodies binding the coated antigen, SLE patients versus healthy controls [2]: significantly higher levels
number of responders / tested (IL-2 production) (PBL of SLE patients): 5/32
percentage of responders (IL-2 production) (PBL of SLE patients): 16%
number of responders / tested (IL-2 production) (PBL of healthy controls): 16/25
percentage of responders (IL-2 production) (PBL of healthy controls): 64%

YYCARGLLRGGWNDVDYYGMDV [hCDR3, peptide based on CDR3 of the human 16/6Id mAb]
inhibition of proliferative responses to mitogen PHA [4]: could not inhibit
inhibition of proliferative responses to human 16/6Id mAb ([3]; FIG. 10): inhibited efficiently
inhibition of proliferative responses to human 16/6Id mAb ([3]; FIG. 11): did inhibit efficiently
Percent Inhibition of proliferation ([3]; SLE patient Number 1): <50%
Percent Inhibition of proliferation ([3]; SLE patient Number 2): 75%
Percent Inhibition of proliferation ([3]; SLE patient Number 3): <50%
Percent Inhibition of proliferation ([3]; SLE patient Number 4): <50%
Percent Inhibition of proliferation ([3]; SLE patient Number 5): 87.5%
Percent Inhibition of proliferation ([3]; SLE patient Number 6): 80%
Percent Inhibition of proliferation ([3]; SLE patient Number 7): 70.4%
Percent Inhibition of proliferation ([3]; SLE patient Number 8): 56%
Percent Inhibition of proliferation ([3]; SLE patient Number 9): 65%
Percent Inhibition of proliferation ([3]; SLE patient Number 10): 71.8%
Percent Inhibition of proliferation ([3]; SLE patient Number 11): 72%
Percent Inhibition of proliferation ([3]; SLE patient Number 12): 86%
Percent Inhibition of proliferation ([3]; SLE patient Number 13): 64%
Percent Inhibition of proliferation ([3]; SLE patient Number 14): 74%
Percent Inhibition of proliferation ([3]; SLE patient Number 15): 69%
Percent Inhibition of proliferation ([3]; SLE patient Number 16): 68%
Percent Inhibition of proliferation ([3]; SLE patient Number 17): 77.8%
Percent Inhibition of proliferation ([3]; SLE patient Number 18): <50%
Percent Inhibition of proliferation ([3]; SLE patient Number 19): 60.8%
responders whose PBL proliferation was inhibited (above 50%) ([3]; of the 19 responders tested): 78.9%
Percent Inhibition of proliferation, Mean ± SD ([3]; over patients with positive inhibition (above 50%)): 71.82 ± 8.44%
patients whose PBL IL-2 secretion was inhibited / tested ([5]; 23 responders): 19/23
Maximum inhibition % ([5]; IL-2 secretion with 16/6 Id alone = 100%): 78 ± 34%
Inhibitory Activity* % (patients with inhibition of 50% or more) ([5]; PBL of 23 responders): 83 (19/23) %
inhibition of IL-2 secretion ([5]; PBL of one SLE patient, FIG. 12): 100%
Up-Regulation of TGF-β % (patients) ([6]; PBL of SLE patients, 48 hours): 100 (19/19) %
secretion of TGF-β ([6]; PBL of one representative SLE patient, FIG. 13): significant up-regulation
Maximum Up-regulation % ([6]; percent secretion above that in the presence of 16/6 Id alone (= 100%)): 338 ± 242%
